Drawing on patent EP0931079B1, “SUBSTITUTED BENZOCYCLOHEPTAPYRIDINE DERIVATIVES USEFUL FOR INHIBITION OF FARNESYL PROTEIN TRANSFERASE” (SCHERING CORPORATION, priority 1996, dated 1998), this text covers IC50 for eleven compounds.

Bounds are passed on as bounds.

In assay [1] the target is T1, farnesyl protein transferase (Homo sapiens, UniProt P49354+P49356). The assay is described as follows: FPT IC50 (H-ras), inhibition of farnesyl protein transferase, in vitro enzyme assay. It counts as biochemical. The conditions noted are these: range stated for the listed compounds as a group. The method, then:
(§1) FPT IC50 (inhibition of farnesyl protein transferase, in vitro enzyme assay) and COS Cell IC50 (Cell-Based Assay) were determined following the assay procedures described in WO 95/10516, published April 20, 1995. GGPT IC50 (inhibition of geranylgeranyl protein transferase, in vitro enzyme assay), Cell Mat Assay, and anti-tumor activity (in vivo anti-tumor studies) could be determined by the assay procedures described in WO 95/10516. The disclosure of WO 95/10516 is incorporated herein by reference thereto.

For assay [2], the target named is T1, farnesyl protein transferase. The assay is described as follows: FPT IC50 (K-ras), inhibition of farnesyl protein transferase, in vitro enzyme assay. The following applies: range stated for the listed compounds as a group. Type of assay: biochemical. The method, then:
as §1

Another assay deals with COS Cell. The assay is described as follows: COS Cell IC50 (Cell-Based Assay). The conditions noted are these: range stated for the listed compounds as a group. The method, then: as §1
The test system of the next assay is Human tumor cells. The assay is described as follows: Soft Agar Assay (anchorage-independent growth, colony outgrowth). It counts as cell-based. The following applies: colonies after 10-16 days at 37°C, range stated for the listed compounds as a group, read-out: Soft Agar FPT IC50. The method, then: Anchorage-independent growth is a characteristic of tumorigenic cell lines. Human tumor cells are suspended in growth medium containing 0.3% agarose and an indicated concentration of a famesyl transferase inhibitor. The solution is overlayed onto growth medium solidified with 0.6% agarose containing the same concentration of farnesyl transferase inhibitor as the top layer. After the top layer is solidified, plates are incubated for 10-16 days at 37°C under 5% CO2 to allow colony outgrowth. After incubation, the colonies are stained by overlaying the agar with a solution of MTT (3-[4,5-dimethyl-thiazol-2-yl]-2,5-diphenyltetrazolium bromide, Thiazolyl blue) (1 mg/mL in PBS). Colonies can be counted and the IC50's can be determined.

Consider `O=C(CC1CCN(CC(=O)N2CCOCC2)CC1)N1CCC([C@H]2c3ncc(Br)cc3CCc3cc(Cl)cc(Br)c32)CC1` [Compound 7.0], for which the IC50 (as a rule, the point on the concentration scale where inhibition reaches its midpoint) in assay [1] is 1.8 to 28 nM; in assay [2], 8.6 to 51.9 nM; with COS Cell, 6 to 840 nM; in the assay on Human tumor cells, ≥ 60 nM.

With `O=C(CN1CCC(CC(=O)N2CCC([C@H]3c4ncc(Br)cc4CCc4cc(Cl)cc(Br)c43)CC2)CC1)N[C@@H]1O[C@H](CO)[C@H](O)[C@H](O)[C@H]1O` [Compound 6.0], the IC50 in assay [1] is 1.8 to 28 nM; in assay [2], 8.6 to 51.9 nM; in the assay on COS Cell, 6 to 840 nM; in the assay on Human tumor cells it was ≥ 60 nM.

For `CC(C)(C)OC(=O)N1CCN(C(=O)CN2CCC(CC(=O)N3CCC([C@H]4c5ncc(Br)cc5CCc5cc(Cl)cc(Br)c54)CC3)CC2)CC1` [Compound 8.0], the 50% inhibitory concentration (IC50) in assay [1] is 1.8 to 28 nM; in assay [2], 8.6 to 51.9 nM; in the assay with COS Cell, 6 to 840 nM; with Human tumor cells it was ≥ 60 nM.

`CC(C)(C)OC(=O)CN1CCC(CC(=O)N2CCC([C@H]3c4ncc(Br)cc4CCc4cc(Cl)cc(Br)c43)CC2)CC1` [Compound 11.0]: the IC50 in assay [1] lay in the range of 1.8 to 28 nM.

On to `O=C(CC1CCN(CC(=O)N2CCNCC2)CC1)N1CCC([C@H]2c3ncc(Br)cc3CCc3cc(Cl)cc(Br)c32)CC1` [Compound 9.0], for which the concentration for half-maximal inhibition (IC50) is 1.8 to 28 nM in assay [1], 8.6 to 51.9 nM in assay [2], 6 to 840 nM with COS Cell and ≥ 60 nM with Human tumor cells.

For `O=C(CN1CCC(CC(=O)N2CCC([C@H]3c4ncc(Br)cc4CCc4cc(Cl)cc(Br)c43)CC2)CC1)NCc1ccccc1` [Compound 5.0], the results for the half-maximal inhibitory concentration (IC50) (in assay [1]; in assay [2]; with COS Cell) were 1.8 to 28 nM, 8.6 to 51.9 nM and 6 to 840 nM, respectively.

Regarding `CCN(CC)C(=O)CN1CCC(CC(=O)N2CCC([C@H]3c4ncc(Br)cc4CCc4cc(Cl)cc(Br)c43)CC2)CC1` [Compound 4.0], the IC50 was 1.8 to 28 nM in assay [1], 8.6 to 51.9 nM in assay [2], 6 to 840 nM in the assay on COS Cell and ≥ 60 nM in the assay on Human tumor cells.

For `O=C(CC1CCN(CC(=O)N2CCc3ccccc32)CC1)N1CCC([C@H]2c3ncc(Br)cc3CCc3cc(Cl)cc(Br)c32)CC1` [Compound 10.0], the results for the IC50 (in assay [1]; in the assay on COS Cell) were 1.8 to 28 nM and 6 to 840 nM, respectively.

Turning to `CON(C)C(=O)CN1CCC(CC(=O)N2CCC([C@H]3c4ncc(Br)cc4CCc4cc(Cl)cc(Br)c43)CC2)CC1` [Compound 3.0], the IC50 in assay [1] was 1.8 to 28 nM; in assay [2] it was 8.6 to 51.9 nM; in the assay on COS Cell it was 6 to 840 nM; in the assay with Human tumor cells, ≥ 60 nM.

For `NC(=O)CN1CCC(CC(=O)N2CCC([C@H]3c4ncc(Br)cc4CCc4cc(Cl)cc(Br)c43)CC2)CC1` [Compound 2.0], the half-inhibitory concentration (IC50) was 1.8 to 28 nM in assay [1], 8.6 to 51.9 nM in assay [2], 6 to 840 nM with COS Cell and ≥ 60 nM with Human tumor cells.

On to `O=C(CC1CCN(CC(O)CO)CC1)N1CCC([C@H]2c3ncc(Br)cc3CCc3cc(Cl)cc(Br)c32)CC1` (stereo partly shown) [Compound 20.0], for which the IC50 in assay [1] is 1.8 to 28 nM; in the assay with COS Cell it was 6 to 840 nM; with Human tumor cells, ≥ 60 nM.
